According to ChEMBL document CHEMBL1150991, “Comparative molecular field analysis of benzopyran-4-carbothioamide potassium channel openers” (Bioorg Med Chem Lett, 1994):

Species on record: Rattus norvegicus
Test: Molar concentration required to relax rat aorta precontracted with 30 mM KCL by 50% of intrinsic activity
Assay type: functional

| SMILES | EC50 [nM] |
| --- | --- |
| CNC(=S)C1=CC(C)(C)Oc2ccc(C(=O)OC)cc21 | 95.5 |

Species on record: Rattus norvegicus
Test: Molar concentration required to relax rat aorta precontracted with 30 mM KCL by 50% of intrinsic activity (calculated)
Assay type: functional

| SMILES | EC50 [nM] |
| --- | --- |
| C/N=C(/S)C1=CC(C)(C)Oc2ccc(C#N)cc21 | 21.4 |
| CNC(=S)C1=CC(C)(C)Oc2ccc(OC)cc21 | 457 |
| C/N=C(/S)C1=CC(C)(C)Oc2ccccc21 | 4470 |
| C/N=C(/S)C1=CC(C)(C)Oc2ccc([N+](=O)[O-])cc21 | 1.29 |
| CCc1ccc2c(c1)C(/C(S)=N\C)=CC(C)(C)O2 | 282 |
| C/N=C(/S)C1=CC(C)(C)Oc2ccc(S(C)(=O)=O)cc21 | 490 |
| C/N=C(/S)C1=CC(C)(C)Oc2ccc(Br)cc21 | 15.1 |
| C/N=C(/S)C1=CC(C)(C)Oc2ccc(OC(F)(F)F)cc21 | 3.98 |
| C/N=C(/S)C1=CC(C)(C)Oc2ccc(C(F)(F)F)cc21 | 2.19 |
| C/N=C(/S)C1=CC(C)(C)Oc2ccc(Cl)cc21 | 28.8 |
| C/N=C(/S)C1=CC(C)(C)Oc2ccc(S(=O)(=O)c3ccccc3)cc21 | 19.5 |
| CNC(=S)C1=CC(C)(C)Oc2ccc(C(=O)OC)cc21 | 85.1 |
| C/N=C(/S)C1=CC(C)(C)Oc2ccc(C(F)(F)C(F)(F)F)cc21 | 11.7 |
